Tested on: African Green monkeys
Experiment: IOP after intravitreal injection in African Green monkeys, compared with PBS in the fellow eye
Assay type: in vivo, African Green monkey
Settings: for animals responding with a reduction in IOP of ≥30%: 4 animals
Experimental: Eight African Green monkeys were screened to identify 4 animals with high-normal IOP. Animals were anesthetized with ketamine 10 mg/kg and Xylazine 0.5 mg/kg. Bimatoprost acid 100 ng in 50 μl was injected intravitreally in one eye through a 30-gauge syringe using a shelved technique, and 50 μl of phosphate buffered saline (PBS) was injected into the fellow eye as a concurrent control on days 0, 1, 2 at 8:30 pm. The bimatoprost acid dose was escalated to 200 ng in 100 μl, with the same volume of PBS given to the fellow eye, on days 3 (8:30 pm) and 4 (5:30 pm). IOP was measured with a Tonovet tonometer at 8:30 am, 11:30 am and 8:30 pm on day 1; 8:30 am, 11:30 am and 5:30 pm on day 4; and at 8:30 am on days 2, 3 and 5. The person measuring the IOP was masked to treatment assignment. Slit lamp exams were performed on day 0, 1 and 5. OCTs were performed at baseline and day 5.

**Q.** Which “animals responding with a reduction in IOP of ≥30%” value (100 ng dose intravitreal) does the source give for `O=C(O)CCC/C=C\C[C@@H]1[C@@H](/C=C/[C@@H](O)CCc2ccccc2)[C@H](O)C[C@@H]1O` [bimatoprost acid] here?
**A.** One of four

**Q.** What about the “reduction in IOP compared with the fellow eye” value (100 ng in 50 μl intravitreal, days 0, 1, 2, animal B392, at 1 timepoint) of the same compound?
**A.** ≥ 30%

**Q.** What about the “animals responding with a reduction in IOP of ≥30%” value (200 ng dose intravitreal) of the same compound?
**A.** Three of four

**Q.** What about the “IOP reduced in the treated eye compared with the fellow eye receiving PBS” value (200 ng dose, animal B392, day 5) of the same compound?
**A.** 52%

**Q.** What about the “reduction in IOP compared with the fellow eye” value (200 ng in 100 μl intravitreal, days 3 and 4, responding animals, at 1 or more timepoints) of the same compound?
**A.** ≥ 30%

**Q.** And the IOP response (animal B300, 100 ng and 200 ng doses)?
**A.** did not respond to either dose
